Measured values from patent publication US11649475B2, “Dioxetane compounds and their use for the detection of microorganisms” (NEMIS Technologies AG, priority 2018, dated 2023).
Read-outs that look alike come from different tables or passages of the source.

Legend:
[1] = system: Escherichia coli ATCC 25922; assay: Luminescence of culture samples after addition of Compound Va with 15% v/v ethanol; assay type: cell-based; settings: for Signal to noise ratio, LB1:20 (to sterile) / RLU, 6 h LB / RLU, 6 h LB1:20: E.c.; for RLU, 6 h LB / RLU, 6 h LB1:20: 20 μM, 15% v/v ethanol, 9-10 min after addition
Procedure: (§1) Escherichia coli ATCC 25922 (E.c., beta-galactosidase positive) and Salmonella Enteritidis RKI 05/07992 (S.E., beta-galactosidase negative) were cultivated in Nutrient Broth for 17 h and then serially diluted in sterile saline (0.9% NaCl). Diluted cell suspensions were inoculated 1:100 v/v in test tubes with either full-strength LB medium (10 g/L tryptone, 5 g/L yeast extract, 5 g/L NaCl) or LB medium diluted 1:20 v/v with ultrapure water (LB1:20). All media contained 1 mM IPTG for induction of beta-galactosidase. Sterile saline was added to negative control tubes. After 6 h of cultivation at 37° C. and 150 rpm, samples (0.255 mL) were withdrawn from cultures and mixed with 45 μL stock solution of compound Va in ethanol in a white microtiter plate. […] For comparison, the same E. coli strain was pre-cultured and diluted in a similar way and then inoculated in diluted Mueller-Hinton broth (MH1:20, full-strength medium diluted 1:20 v/v with 20 mM phosphate buffer pH 7.2). The medium was supplemented with 1 mM IPTG. After 6 h of cultivation at 37° C. and 150 rpm, culture samples (45 μL) were transferred to a microtiter plate and mixed with 5 μL of 10x lysis reagent which contained 2% w/v dodecyl-trimethylammonium bromide, 1 mM D-Luciferin-6-O-beta-D-galactopyranoside (commercially available, Biosynth Cat. No. L-8600) and 10 mM magnesium chloride. Lysis and reaction with D-Luciferin-6-O-beta-D-galactopyranoside was carried out for 1 h at 37° C. Then 0.2 mL of luciferase assay mix was added (5:1 v/v). The assay mix contained 62.5 mM Tris acetate (pH 7.8), 12.5 mM magnesium sulfate, 2.5 g/L bovine serum albumin, 7.5 mM D/L-cysteine, 1.25 mM ethylene diamine tetraacetate, 25 μM sodium pyrophosphate, 10 g/L cyclodextrin, 1.25 mM adenosine 5-triphosphate and 13.1 μg/mL commercially available Photinus pyralis luciferase (recombinant). Light emission was recorded with a SpectraMax M5 plate reader.

[2] = system: Salmonella Enteritidis RKI 05/07992; assay: as above; assay type: cell-based; settings: S.E., inoculation density 10^6 CFU/mL
Procedure: as §1

[3] = system: Salmonella Enteritidis RKI 05/07992; assay: Luminescence of cultures containing D-luciferin-6-O-phenyl-caprylate after mixing with luciferase assay mix; assay type: cell-based, Salmonella enterica ssp. enterica ser. Enteritidis; settings: S.E.; for RLU, 6 h: 0.1 mM in Nutrient Broth, first 3 min after luciferase assay mix
Procedure: D-luciferin-6-O-phenyl-caprylate was synthesized according to procedures known to persons skilled in the art. Salmonella Enteritidis RKI 05/07992 (S.E., Salmonella enterica ssp. enterica ser. Enteritidis, C8 esterase positive) was cultivated in Nutrient Broth (5 g/L peptone, 5 g/L NaCl, 2 g/L […], 1 g/L […], pH 7.4) for 16 h and then serially diluted in sterile saline (0.9% NaCl). Diluted cell suspensions were inoculated 1:100 v/v in test tubes with Nutrient Broth containing 0.1 mM D-luciferin-6-O-phenyl-caprylate. […] Light emission was recorded with a plate reader equipped with a luminescence detection system. Mean RLU (relative light unit) values of first 3 min after addition of luciferase assay mix were compared (Table VII).

[4] = system: Klebsiella pneumoniae RKI 92/08 (KPC-2); assay type: cell-based; settings: K.p.-Imp^R; for RLU max. (with 10 μM VI): 6 h culture, 30 min recording
Procedure: (§2) Carbapenem resistant bacterial strains Pseudomonas aeruginosa RKI 48/09 (IMP-2) (P.a.-Imp^R) and Klebsiella pneumoniae RKI 92/08 (KPC-2) (K.p.-Imp^R) were cultivated on trypticase soy agar supplemented with 8 mg/L and […] imipenem, respectively. Carbapenem sensitive strain Escherichia coli ATCC 25922 (E.c.) was cultivated on trypticase soy agar. Nutrient broth (for composition and pH see previous examples, 3 mL in 15 mL tubes) with and without imipenem was inoculated with imipenem resistant and sensitive bacteria from agar plates. Tube cultures were incubated for 6 h at 37° C. and 150 rpm. Culture samples (0.255 mL) were transferred to wells of a white microtiter plate and mixed with 45 μL stock solution of compound Vila in ethanol. Final concentrations of compound Vila, ethanol and dimethyl sulfoxide were 10 μM, […] and 1% v/v, respectively. Luminescence was recorded after addition of […] for 30 min with a plate reader.

[5] = system: Pseudomonas aeruginosa RKI 48/09 (IMP-2); assay type: cell-based; settings: P.a.-Imp^R; for RLU max. (with 10 μM VI): 6 h culture, 30 min recording
Procedure: as §2

[6] = system: Escherichia coli ATCC 25922; assay: Luminescence of culture samples of carbapenem resistant and sensitive bacteria after addition of compound VIIa; assay type: cell-based; settings: E.c.; for RLU max. (with 10 μM VI): 6 h culture, 30 min recording
Procedure: as §2

[7] = system: Escherichia coli ATCC 25922; settings: E.c.; for Signal to noise ratio (to sterile): MH1:20; for RLU, 6 h MH1:20: first two minutes of measurement
Procedure: as §1

[8] = inoculation density 10^2 CFU/mL
[9] = inoculation density 10^3 CFU/mL
[10] = inoculation density 10^4 CFU/mL
[11] = inoculation density 10^5 CFU/mL
[12] = inoculation density 10^6 CFU/mL
[13] = 20 μM, 15% v/v ethanol, 9-10 min after addition
[14] = imipenem 4 mg/L in nutrient broth

## COC(=O)/C=C/c1ccc(C2(OC)OOC23C2CC4CC(C2)CC3C4)c(Cl)c1OCc1ccc(OC2OC(CO)C(O)C(O)C2O)cc1 (centres unmarked) [Compound Va]
[1]; [8]
  Signal to noise ratio, LB1:20 (to sterile): 14
  RLU, 6 h LB: 551 RLU
  RLU, 6 h LB1:20: 1369 RLU
[1]; [9]
  Signal to noise ratio, LB1:20 (to sterile): 79
  RLU, 6 h LB: 3317 RLU
  RLU, 6 h LB1:20: 7690 RLU
[1]; [10]
  Signal to noise ratio, LB1:20 (to sterile): 1085
  RLU, 6 h LB: 49434 RLU
  RLU, 6 h LB1:20: 105252 RLU
[1]; [11]
  Signal to noise ratio, LB1:20 (to sterile): 1698
  RLU, 6 h LB: 43412 RLU
  RLU, 6 h LB1:20: 164721 RLU
[1]; [12]
  Signal to noise ratio, LB1:20 (to sterile): 871
  RLU, 6 h LB: 18830 RLU
  RLU, 6 h LB1:20: 84511 RLU
[1]; lowest tested inoculation density of E. coli, 5-fold lower working concentration
  signal to noise ratio higher than with D-Luciferin-6-O-beta-D-galactopyranoside: 9 fold
[2]
  Signal to noise ratio, LB1:20 (to sterile): 1
[2]; [13]
  RLU, 6 h LB: 66 RLU
  RLU, 6 h LB1:20: 125 RLU

## CCCCCCCC(=O)Oc1ccc(COc2ccc3nc(C4=N[C@@H](C(=O)O)CS4)sc3c2)cc1 [D-luciferin-6-O-phenyl-caprylate]
[3]; [8]
  Signal to noise ratio (to sterile): 1.1
  RLU, 6 h: 18354 RLU
[3]; [10]
  Signal to noise ratio (to sterile): 1.6
  RLU, 6 h: 27783 RLU
[3]; [12]
  Signal to noise ratio (to sterile): 24
  RLU, 6 h: 417195 RLU

## C[C@@H](O)[C@H]1C(=O)N2C(C(=O)O)=C(SCCN=CN)C[C@H]12 [Imipenem, imipenem, reference compound]
[4]; [14]
  OD600 6 h: 0.50
[5]; imipenem 8 mg/L in nutrient broth
  OD600 6 h: 0.48
[6]; [14]
  OD600 6 h: 0.01

## COC(=O)/C=C/c1ccc(C2(OC)OOC23C2CC4CC(C2)CC3C4)c(Cl)c1OCc1ccc(C2=C(C(=O)O)N3C(=O)[C@H]([C@@H](C)O)[C@H]3[C@H]2C)cc1 (stereo partly drawn) [VIIa, (4S,5R,6S)-3-(4-((2-Chloro-6-((E)-3-methoxy-3-oxoprop-1-en-1-yl)-3-((1r,3r,5S,7S)-4′-methoxyspiro[adamantane-2,3′-[1,2]dioxetan]-4′-yl)phenoxy)methyl)phenyl)-6-((R)-1-hydroxyethyl)-4-methyl-7-oxo-1-azabicyclo[3.2.0]hept-2-ene-2-carboxylicacid]
[4]; imipenem 0 mg/L
  Signal to noise ratio (to E.c.): 8.9
  RLU max. (with 10 μM VI): 72951 RLU
[4]; imipenem 4 mg/L
  Signal to noise ratio (to E.c.): 8.8
  RLU max. (with 10 μM VI): 72272 RLU
[5]; imipenem 0 mg/L
  Signal to noise ratio (to E.c.): 2.4
  RLU max. (with 10 μM VI): 19940 RLU
[5]; imipenem 8 mg/L
  Signal to noise ratio (to E.c.): 2.6
  RLU max. (with 10 μM VI): 21028 RLU
[6]; imipenem 0 mg/L
  RLU max. (with 10 μM VI): 8181 RLU
[6]; imipenem 4 mg/L
  RLU max. (with 10 μM VI): 7992 RLU

## D-Luciferin-6-O-beta-D-galactopyranoside
[7]; [8]
  Signal to noise ratio (to sterile): 1.5
  RLU, 6 h MH1:20: 13367 RLU
[7]; [10]
  Signal to noise ratio (to sterile): 377
  RLU, 6 h MH1:20: 3306967 RLU
[7]; [12]
  Signal to noise ratio (to sterile): 544
  RLU, 6 h MH1:20: 4777613 RLU
